{
  "source": "patent US20190308987A1",
  "about": "“DUAL MODULATORS OF BOTH MU AND KAPPA OPIOID RECEPTORS” (priority 2016, published 2019)",
  "key": {"mu opioid receptor (MOR)": {"biological_target": "T1, mu opioid receptor (MOR) (Mus musculus, UniProt P42866)", "T1 construct": "expressed in transfected cells; host or cells: CHO cells (membranes)", "test": "Competitive radioligand binding, MOR ([3H]naloxone)", "conditions": "mean ± SEM of three experiments", "description": "(§1) The details of the Radioligand Binding and Functional Studies that were used were described previously.^19 Chinese hamster ovarian (CHO) cell lines were used as monoclonal opioid receptor expressing cells. The μ, δ, and κ opioid receptors were labeled with [^3H]naloxone, ^3H-naltrindole ([^3H]NTI) and ^3H-nor-Binaltorphimine ([^3H]norBNI). The opioid receptor expressing cell membranes were incubated with the radioligands at different concentrations of the drug under investigation at 30° C. for 1 h. With the absence and presence of 10 μM naltrexone, specific binding was got as the difference in binding obtained. The specific binding of the drugs to the radioligand was calculated from data using linear regression analysis of Hill plots.\n(§2) All samples were assayed in triplicate and repeated at least twice for a total of 3 independent determinations. Results were reported as mean values±SEM. Concentration-effect curves were fit by nonlinear regression to a one-site binding model, using GraphPad Prism software, to determine EC50 and Emax values. IC50 values were obtained from Hill plots and analyzed by linear regression using Microsoft Excel software. Binding Ki values were determined from IC50 values using the Cheng-Prusoff equation: Ki=IC50/l+([L]/KD), where [L] is the concentration of […] and KD is the KD of the radioligand."}, "[1]": {"biological_target": "T2, kappa opioid receptor (KOR) (Homo sapiens, UniProt P41145)", "T2 construct": "expressed in transfected cells; host or cells: CHO cells (membranes)", "test": "Competitive radioligand binding, KOR ([3H]nor-BNI)", "description": "as §1, §2"}, "KOR": {"biological_target": "T3, KOR (Homo sapiens, UniProt P41145)", "T3 construct": "expressed in transfected cells; host or cells: CHO cells (membranes)", "test": "[35S]GTPγS-binding assay, KOR-expressing CHO cell membranes", "type": "biochemical", "description": "[^35S]-GTPγS-Binding Assays using DOR- or KOR-Expressing CHO Cell Lines: Cell membranes (10 μg protein) were incubated with 10 μM GDP and 0.1 nM [^35S]-GTPγS in assay buffer in the presence and absence of varying concentrations of BNAP, 3 μM SNC80 (standard full agonist at DOR) or 3 μM U50,488H (standard full agonist at KOR) for 90 min at 30° C. Nonspecific binding was determined with 10 μM unlabeled GTPγS. The reaction was terminated and bound radioactivity determined as described above and previously.^9\nas §2"}, "morphine antinociception": {"system": "morphine antinociception", "test": "Warm water tail immersion (tail flick) test", "type": "in vivo, Swiss Webster mice", "description": "Male Swiss Webster mice (Harlan Laboratories, Indianapolis, Ind.) weighing 25-30 g were housed 5 to a cage in animal care quarters and maintained at […] on a 12 h light-dark cycle. Food and water were available ad libitum. The mice were brought to a test room (22±2° C., 12 h light-dark cycle), marked for identification and allowed 18 h to recover from transport and handling. Protocols and procedures were approved by the Institutional Animal Care and Use Committee (IACUC) at Virginia Commonwealth University Medical Center and comply with the recommendations of the IASP (International Association for the Study of Pain).\nThe warm water tail-immersion test was performed according to previously described methods using a water bath with the temperature maintained at 56±0.1° C.^20 Briefly, before giving the mice injections, a baseline (control) latency was determined. Only mice with a control reaction time of 2 to 4 s were used. The average baseline latency for these experiments was 3.0±0.1 s. The test latency after drug treatment was assessed at the appropriate time, and a 10 s maximal cutoff time was imposed to prevent tissue damage. Antinociception was quantified according to established procedures as the percentage of maximum possible effect (% MPE), which was calculated as follows: % MPE=[(test latency−control latency)/(10−control latency)]×100.^21 Percentage MPE was calculated for each mouse, using at least six mice per group.\nIntracerebroventricular (ICV) injections were performed as described previously.^22 Mice were anesthetized with 2.5% isoflurane and a horizontal incision was made in the scalp. A needle was inserted to a depth of 3 mm into the lateral ventrical (2 mm rostral and 2 mm lateral at a 45° angle from the bregma). At intervals, 5 μL injections of drug or vehicle were made using this guide insertion to the same depth using a needle with a guard in nonanesthetized animals.^22, 23 Animals underwent the anesthetized surgery in the morning of the experiment and were then injected with drug at intervals indicated in the text without additional anesthesia. Immediately after testing, the animals were euthanized to minimize any type of distress, according to IACUC guidelines."}, "colonic motility": {"system": "colonic motility", "test": "Colonic bead expulsion assay", "type": "in vivo, mice", "description": "Mice were habituated and fasted as described above for the gastrointestinal transit analysis. […] At 20 min post-injection, animals were anesthetized with isoflurane (1-2 min) to insert a single 2-mm glass bead into the distal colon at a distance of 3 cm from the anus. Bead insertion was accomplished using a glass rod with a fire-polished end to avoid tissue damage and marked at 3 cm.^25 After bead insertion, mice were placed in individual cages and the time to bead expulsion was monitored. Animals were monitored for a maximum of 2 h unless bead expulsion occurred sooner."}, "[2]": {"system": "guinea pig ileum Longitudinal Muscle Myenteric Plexus (LMMP)", "test": "Electrical field stimulated contractions in LMMP strips", "description": "Male albino guinea pigs (350-450 g) were euthanized by asphyxiation with CO2. A segment of ileum was removed and placed in a dissection bath filled with pre-oxygenated Krebs' solution (118 mM NaCl, 4.6 mM KCl, 1.3 mM NaH2PO4, 1.2 mM MgSO4, 25 mM NaHCO3, 11 mM glucose, and 2.5 mM CaCl2). Longitudinal Muscle Myenteric Plexus (LMMP) strips were prepared as previously described.^26 Electrical field stimulation (EFS) (50 V, 7.5 Hz, unless stated otherwise) was applied through concentric electrodes over longitudinal muscle or L-type stimulating electrodes over circular muscle strips to produce neurogenic contractions/relaxations. Drugs were added in single or cumulative doses depending on the assay to determine their inhibitory effects on the neurogenic responses."}},
  "data": [
    {"smiles": "O=C(N[C@@H]1CC[C@@]2(O)[C@H]3Cc4ccc(O)c5c4[C@@]2(CCN3CC2CC2)C1O5)c1cc[n+](Cc2ccccc2)cc1", "note": "(stereo partly shown) [BNAP]", "values": [
      {"measurement": "Ki", "setting": "mu opioid receptor (MOR)", "result": "0.76 ± 0.09", "unit": "nM"},
      {"measurement": "Ki", "setting": "[1]; KOR, [3H]nor-BNI, read-out: Ki (nM) ± SEM", "result": "3.46 ± 0.05", "unit": "nM"},
      {"measurement": "Selectivity (κ/μ)", "setting": "[1]; ratio of Ki KOR/MOR", "result": 4.6},
      {"measurement": "EC50", "setting": "KOR; 35S-GTP[γS]", "result": "2.9 ± 1.1", "unit": "nM"},
      {"measurement": "% max of agonist", "setting": "KOR; Emax relative to full agonist U50,488H", "result": "45.9±1.7", "unit": "%"},
      {"measurement": "antinociception of compound alone", "setting": "morphine antinociception; 1.0 μg/5 μL ICV, compared to morphine alone", "result": "did not produce significant antinociception"},
      {"measurement": "antagonism of morphine antinociception", "setting": "morphine antinociception; 10 mg/kg s.c., any morphine dose tested", "result": "did not significantly antagonize morphine antinociception"},
      {"measurement": "antinociceptive effect of compound alone", "setting": "morphine antinociception; 10 mg/kg s.c., warm water tail flick, mice", "result": "did not produce significant antinociceptive effects"},
      {"measurement": "dose giving complete reversal of morphine antinociception", "setting": "morphine antinociception; ICV, dose dependent reversal", "result": 0.3, "unit": "μg/5 μL"},
      {"measurement": "bead expulsion time", "setting": "colonic motility; BNAP alone 10 mg/kg, naive mice 17 min", "result": 43, "unit": "min"},
      {"measurement": "antagonism of morphine's effect on bead expulsion", "setting": "colonic motility; BNAP concurrently or 5 or 15 min before morphine", "result": "no significant antagonism of morphine's effects was observed"},
      {"measurement": "IC50", "setting": "[2]; Cavia porcellus, guinea pig ileum LMMP, read-out: pIC50 for inhibition of EFS contractions (converted)", "result": 13.8, "unit": "nM"},
      {"measurement": "effect of nor-BNI on agonist concentration-response curve", "setting": "[2]; nor-BNI pretreatment 15 min, dose dependent", "result": "dose dependently shifted the BNAP concentration-response curve to the right"}
    ]}
  ]
}
